Laboratory results from PubChem BioAssay (NCI).
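Results reflect a 48-hour exposure of cells in 96-well plates to compound at five concentrations. At the TGI there is no net growth.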

Key:
Assay in all cases: NCI tumour cell line growth inhibition, 48 h
[1] = test system: 786-0 renal
[2] = test system: A498 renal
[3] = test system: A549 NSCLC
[4] = test system: ACHN renal
[5] = test system: CAKI-1 renal
[6] = test system: COLO 205 colon
[7] = test system: DLD-1 colon
[8] = test system: DMS 114 small cell lung
[9] = test system: DMS 273 small cell lung
[10] = test system: EKVX NSCLC
[11] = test system: HCC-2998 colon
[12] = test system: HCT-116 colon
[13] = test system: HCT-15 colon
[14] = test system: HL-60(TB) leukemia
[15] = test system: HOP-18 NSCLC
[16] = test system: HOP-62 NSCLC
[17] = test system: HOP-92 NSCLC
[18] = test system: HT29 colon
[19] = test system: IGROV1 ovarian
[20] = test system: K-562 leukemia
[21] = test system: KM12 colon
[22] = test system: KM20L2 colon
[23] = test system: LOX IMVI melanoma
[24] = test system: LXFL 529 NSCLC
[25] = test system: M14 melanoma
[26] = test system: M19-MEL melanoma
[27] = test system: MALME-3M melanoma
[28] = test system: NCI-H226 lung
[29] = test system: NCI-H23 lung
[30] = test system: NCI-H460 lung
[31] = test system: NCI-H522 lung
[32] = test system: OVCAR-3 ovarian
[33] = test system: OVCAR-4 ovarian
[34] = test system: OVCAR-5 ovarian
[35] = test system: OVCAR-8 ovarian
[36] = test system: RPMI-8226 leukemia
[37] = test system: RXF 393 renal
[38] = test system: RXF-631 renal
[39] = test system: SF-268 CNS
[40] = test system: SF-295 CNS
[41] = test system: SF-539 CNS
[42] = test system: SK-MEL-2 melanoma
[43] = test system: SK-MEL-28 melanoma
[44] = test system: SK-MEL-5 melanoma
[45] = test system: SK-OV-3 ovarian
[46] = test system: SN12C renal
[47] = test system: SNB-19 CNS
[48] = test system: SNB-75 CNS
[49] = test system: SNB-78 CNS
[50] = test system: SR leukemia
[51] = test system: SW-620 colon
[52] = test system: TK-10 renal
[53] = test system: U251 CNS
[54] = test system: UACC-257 melanoma
[55] = test system: UACC-62 melanoma
[56] = test system: UO-31 renal
[57] = test system: XF 498 CNS
[58] = test system: MOLT-4 leukemia
[59] = test system: CCRF-CEM leukemia

Measured: TGI

CS/C(=C(\S)c1ccccc1)c1ccccc1
> 31.6 µM: [22]
not listed: [58] | [59]
> 100 µM: all other assays above

CCOC(=O)C1SC(=Nc2ccccc2)N=C1C (stereo not drawn)
88.8 µM: [17]
88.7 µM: [48]
not listed: [5] | [9] | [25] | [44] | [45] | [55] | [59]
> 100 µM: all other assays above

CCOC(=O)c1ccc(N=Nc2cc(C(=O)OCC)ccc2O)cc1
41.8 µM: [10]
22 µM: [57]
not listed: [11] | [21] | [27] | [28] | [32] | [33] | [34] | [38] | [40] | [42] | [47] | [48] | [49] | [50] | [54]
> 100 µM: all other assays above

Nc1ccn(C2OC(C(O)CO)C(O)C2O)c(=O)n1 (stereo not drawn)
not listed: [1] | [5] | [11] | [18] | [19] | [21] | [26] | [27] | [28] | [32] | [33] | [34] | [42] | [47] | [48] | [49] | [50] | [54] | [55]
> 100 µM: all other assays above
